Columns and labels:
Assay in all cases: Oxford cup inhibition zone test of antibacterial Hermetia illucens peptide
Assay type in all cases: cell-based
Conditions in all cases: positive control, 1 mg/ml of chloramphenicol
Vibrio alginolyticus = tested on: Vibrio alginolyticus
Excerpt: (§1) Article number (Art. No.) of Staphylococcus aureus: CICC 10306; Art. No. of Escherichia coli: CICC 10372; Art. No. of Vibrio alginolyticus: CICC 10484.
(§2) 1. Extraction of the Antibacterial Peptide of the Larval Hermetia Illucens Paste
(§3) (1) Preparation of an antibacterial peptide extraction solution (10% acetic acid and 0.01 mol/L Na2EDTA).
(§4) (2) The fermentation liquor of larval Hermetia illucens paste in the untreated group and the Aspergillus oryzae fermentation group of Example 2 was mixed with the antibacterial peptide extraction solution well (v: v=1:10), respectively, and liquid-solid extracted for half an hour at 200 rpm and 37° C., then transferred to a centrifugal machine (3500 rpm, 25 min); supernatant was collected as a crude extraction solution of the antibacterial peptide. The crude extraction solution was further frozen-dried to obtain the antibacterial Hermetia illucens peptide.
(§5) 2. Determination of Antibacteral Activity of the Antibacterial Hermetia Illucens Peptide
(§6) […] The concentration of the Staphylococcus aureus solution and Escherichia coli solution as well as Vibrio alginolyticus solution was determined 1.0×10^9 CFU/mL, 1.0×10^9 CFU/mL, and 1.0×10^7 CFU/mL, respectively; proper amount of the Staphylococcus aureus solution and Escherichia coli solution were absorbed and evenly coated on LB media, and the Vibrio alginolyticus solution was coated on a TCBS plate. An Oxford cup having a diameter of 7.5 mm was slightly placed on the LB plate, added with an equivalent amount of the antibacterial Hermetia illucens peptide, and cultured in a 37° C. thermostatic incubator for 10 hours, then the diameter of inhibition zones was observed and measured.

Staphylococcus aureus = tested on: Staphylococcus aureus
Excerpt: as §1, §2, §3, §4, §5, §6

Escherichia coli = tested on: Escherichia coli
Excerpt: as §1, §2, §3, §4, §5, §6

For O=C(N[C@H](CO)[C@H](O)c1ccc([N+](=O)[O-])cc1)C(Cl)Cl [chloramphenicol], the “Diameter of inhibition zone” value (Vibrio alginolyticus) was 26 mm, the “Diameter of inhibition zone” value (Staphylococcus aureus) was 16 mm and the “Diameter of inhibition zone” value (Escherichia coli) was 17 mm.

— patent US12404486B1, “Aspergillus oryzae JAAS-32 and use thereof in preparation of larval Hermetia illucens paste protein peptide” (Jiangsu Academy of Agricultural Sciences, priority 2024, dated 2025)
